According to PubChem BioAssay (NCI):
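96-well plates; 48 h exposure; 5 concentrations. Endpoints by linear interpolation between flanking doses. Not reached: highest tested concentration assigned. GI50 = concentration required for 50% inhibition of growth. TGI: total growth inhibition.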

Experiments:
Experiment in all cases: inhibition of tumour cell growth, NCI panel, 48 h
[1] = system: ACHN renal
[2] = system: COLO 205 colon
[3] = system: HS 578T breast
[4] = system: HT29 colon
[5] = system: IGROV1 ovarian
[6] = system: M14 melanoma
[7] = system: MDA-MB-231 breast
[8] = system: RPMI-8226 leukemia
[9] = system: MALME-3M melanoma
[10] = system: SN12C renal

Compound	GI50 [1]	TGI [1]	GI50 [2]	TGI [2]	GI50 [3]	TGI [3]	GI50 [4]	TGI [4]	GI50 [5]	TGI [5]	GI50 [6]	TGI [6]	GI50 [7]	TGI [7]	GI50 [8]	TGI [8]	TGI [9]	TGI [10]	GI50 [9]	GI50 [10]
COc1ccc(C#CC2=C(c3cc(OC)c(OC)c(OC)c3)C(=O)OC2)cc1	5.89 µM	25.3 µM	4.15 µM	> 50 µM	13.1 µM	> 50 µM	2.66 µM	> 50 µM	13.9 µM	> 50 µM	> 50 µM	> 50 µM	32 µM	> 50 µM	1.21 µM	3.56 µM				
C#CC(=O)OCC#CCOC(=O)C#C		33 µM		32.4 µM		86.5 µM		42.7 µM				49.5 µM		75.6 µM		34.3 µM	38 µM	82.3 µM		
COC(=O)[C@@H](OC)[C@@H]1Cc2cc3cc(OC4CC(OC5CC(O)C(O)C(C)O5)C(O)C(C)O4)c(C)c(O)c3c(O)c2C(=O)[C@H]1OC1CC(OC2CC(OC3CC(C)(O)C(O)C(C)O3)C(O)C(C)O2)C(O)C(C)O1 (some centres not stated)	0.0313 µM	> 16.5 µM			0.0399 µM	0.223 µM	0.039 µM		0.0299 µM	> 16.5 µM	0.0382 µM	0.157 µM	0.0479 µM	0.148 µM	0.0329 µM	0.112 µM	0.0839 µM	> 16.5 µM	0.034 µM	0.0389 µM
Cc1ccc(NC(=O)/C(=N\NC(N)=O)c2c(O)c3ccccc3[nH]c2=O)cc1		> 100 µM		> 100 µM		> 100 µM		> 100 µM				> 100 µM		> 100 µM		> 100 µM		> 100 µM		
O=C1CCC2(c3ccccc3)Nc3ccc(Cl)cc3N12 (configuration not stated)		> 100 µM		> 100 µM				> 100 µM		> 100 µM		> 100 µM				> 100 µM	> 100 µM	> 100 µM		
O=C(NC(=O)c1cc2cc(Br)cc(Br)c2oc1=O)Oc1ccccc1		72 µM		> 100 µM				> 100 µM		> 100 µM		> 100 µM				> 100 µM	> 100 µM	> 100 µM		
CCCCN1CCN(c2ccc3nc(-c4ccc5nc(-c6ccc(OCC)c(OCC)c6)[nH]c5c4)[nH]c3c2)CC1	0.922 µM	2.12 µM	0.231 µM	1.52 µM			0.802 µM	2.97 µM			0.314 µM	1.55 µM	1.69 µM	3.28 µM	0.436 µM	2.06 µM				
O=[N+]([O-])c1ccc(COc2cccc3cccnc23)cc1		76.8 µM		33.5 µM				> 100 µM		67.7 µM		29 µM				39.2 µM	> 100 µM	> 100 µM		
COc1ccc(-c2nnc(Nc3nc(O)c(C4=c5cc(F)ccc5=NC4=O)s3)o2)cc1	35.3 µM	> 100 µM	68.2 µM	> 100 µM	69.1 µM	> 100 µM	40.5 µM	> 100 µM	14.3 µM	51.4 µM			19.8 µM	52.2 µM	59.1 µM	> 100 µM	> 100 µM	> 100 µM	34.5 µM	47 µM
COC[C@@H](N=CN1CCc2cc(OC)c(OC)cc2C1)C(C)(C)C		> 100 µM		> 100 µM				> 100 µM		> 100 µM		> 100 µM				> 100 µM	> 100 µM	> 100 µM		
